# Laboratory results as given in patent publication US20250195521A1 (Revolution Medicines, Inc., priority 2020, published 2025).
# How the values were obtained:
# [1] = tested on: Capan-1 cells (K-Ras G12V); test: CellTiter-Glo cell viability, Capan-1; type: cell-based, human; details: Homo sapiens, CAPAN-1, 120 h, K-Ras G12V, 5-day treatment; read-out: Capan-1 Cell Viability IC50
# Summary of the method: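 Cells seeded, compound dispensed straight into wells, 5-day exposure. Plates brought to room temperature ~30 min, CellTiter-Glo luminescence measured. Normalized to DMSO (%), 4-parameter logistic fit.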
# [2] = molecular target: KRAS G12C (Homo sapiens (Human), UniProt P01116+P62937, G12C); test: Ras-Raf disruption/FRET/MOA assay (BRAF RBD, Cyclophilin A); type: biochemical; details: read-out: KRAS G12C FRET IC50
# Summary of the method: (§1)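 His6-K-Ras-GMPPNP (12.5 nM), GST-BRAF RBD (50 nM) and tagless Cyclophilin A (25 μM) were combined in 25 mM HEPES pH 7.3 with 100 mM NaCl, 5 mM MgCl2, 0.1% BSA and 0.002% Tween20, with compound as a 10-point 3-fold series from 30 μM final, then incubated 3 h at 25° C.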
# [3] = molecular target: KRAS G12D (Homo sapiens (Human), UniProt P01116+P62937, G12D); test: as above; type: biochemical; details: read-out: KRAS G12D FRET IC50
# Summary of the method: as §1
# [4] = molecular target: KRAS G12S (Homo sapiens (Human), UniProt P01116+P62937, G12S); test: as above; type: biochemical; details: read-out: KRAS G12S FRET IC50
# Summary of the method: as §1
# [5] = molecular target: KRAS G12V (Homo sapiens (Human), UniProt P01116+P62937, G12V); test: as above; type: biochemical; details: read-out: KRAS G12V FRET IC50
# Summary of the method: as §1
# [6] = molecular target: KRAS G13C (Homo sapiens (Human), UniProt P01116+P62937, G13C); test: as above; type: biochemical; details: read-out: KRAS G13C FRET IC50
# Summary of the method: as §1
# [7] = molecular target: KRAS G13D (Homo sapiens (Human), UniProt P01116+P62937, G13D); test: as above; type: biochemical; details: read-out: KRAS G13D FRET data IC50
# Summary of the method: as §1
# [8] = molecular target: KRAS WT (Homo sapiens (Human), UniProt P01116+P62937); test: as above; type: biochemical; details: read-out: KRAS WT FRET data IC50
# Summary of the method: as §1
# [9] = molecular target: NRAS G12C (Homo sapiens (Human), UniProt P01111+P62937, G12C); test: as above; type: biochemical; details: read-out: NRAS G12C FRET data IC50
# Summary of the method: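 TR-FRET readout: anti-His Eu-W1024 (10 nM) and anti-GST allophycocyanin (50 nM) added after 3 h, 25° C compound incubation, then 1.5 h more. Decrease in FRET ratio versus DMSO wells marks Ras:RAF disruption; IC50 reported.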
# [10] = tested on: K-Ras G12C (NCI-H358 cells); test: Potency assay: pERK in NCI-H358 cells; type: cell-based, human; details: Homo sapiens; NCI-H358 cells, 4 hours; read-out: pERK EC50 (H358 KRAS G12C)
# Summary of the method: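 Cells plated the day before were exposed for 4 h at 37° C, 5% CO2 to a 10-point, 3-fold DMSO dilution series (10 mM top stock), in duplicate. Phospho-ERK was read by AlphaLISA SureFire Ultra or by In-Cell Western with DRAQ5 DNA stain, and IC50 came from a 4-parameter sigmoidal fit.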
# [11] = tested on: NCI-H358 cells (K-Ras G12C); test: CellTiter-Glo cell viability, NCI-H358; type: cell-based, human; details: Homo sapiens, NCI-H358, 120 h, K-Ras G12C, 5-day treatment; read-out: H358 Cell Viability IC50
# Protocol: Note—The following protocol describes a procedure for monitoring cell viability of K-Ras mutant cancer cell lines in response to a compound of the invention. Other RAS isoforms may be employed, though the number of cells to be seeded will vary based on cell line used.
# Test compounds (132.5 nl) were directly dispensed into the assay plates containing cells. […] On day 5, assay plates and their contents were equilibrated to room temperature for approximately 30 minutes. […] Luminescence was measured using the PerkinElmer Enspire. Data were normalized by the following: (Sample signal/Avg. DMSO)*100. The data were fit using a four-parameter logistic fit.
# Chain of KRAS G12V (P01116 other isoform, or with tags, fused parts or gaps G12V): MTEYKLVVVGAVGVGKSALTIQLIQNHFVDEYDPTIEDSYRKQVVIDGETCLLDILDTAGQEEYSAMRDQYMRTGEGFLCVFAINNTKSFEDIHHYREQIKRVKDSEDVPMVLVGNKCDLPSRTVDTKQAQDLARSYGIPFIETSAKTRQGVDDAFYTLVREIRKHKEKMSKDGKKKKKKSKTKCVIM
# Chain of KRAS G12V (P62937 whole entry): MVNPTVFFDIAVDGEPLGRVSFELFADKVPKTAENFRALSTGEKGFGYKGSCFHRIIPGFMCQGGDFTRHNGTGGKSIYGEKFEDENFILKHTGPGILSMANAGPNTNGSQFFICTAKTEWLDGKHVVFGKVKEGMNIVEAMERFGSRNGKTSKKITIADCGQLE
# Chain of KRAS G12S (P01116 other isoform, or with tags, fused parts or gaps G12S): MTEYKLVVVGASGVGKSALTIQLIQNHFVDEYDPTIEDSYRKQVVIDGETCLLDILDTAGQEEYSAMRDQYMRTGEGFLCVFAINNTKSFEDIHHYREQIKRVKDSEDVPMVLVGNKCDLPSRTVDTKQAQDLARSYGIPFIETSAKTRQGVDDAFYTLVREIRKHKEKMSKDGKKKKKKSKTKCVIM
# Chain of KRAS G12S (P62937 whole entry): as the sequence (P62937 whole entry) above
# Chain of NRAS G12C (P01111 whole entry G12C): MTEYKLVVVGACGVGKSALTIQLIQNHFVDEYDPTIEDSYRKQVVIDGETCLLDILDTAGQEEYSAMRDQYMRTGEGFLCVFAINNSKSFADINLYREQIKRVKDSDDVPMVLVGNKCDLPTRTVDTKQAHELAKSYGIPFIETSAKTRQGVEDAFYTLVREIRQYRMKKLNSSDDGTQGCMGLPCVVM
# Chain of NRAS G12C (P62937 whole entry): as the sequence (P62937 whole entry) above
# Chain of KRAS G12D (P01116 other isoform, or with tags, fused parts or gaps G12D): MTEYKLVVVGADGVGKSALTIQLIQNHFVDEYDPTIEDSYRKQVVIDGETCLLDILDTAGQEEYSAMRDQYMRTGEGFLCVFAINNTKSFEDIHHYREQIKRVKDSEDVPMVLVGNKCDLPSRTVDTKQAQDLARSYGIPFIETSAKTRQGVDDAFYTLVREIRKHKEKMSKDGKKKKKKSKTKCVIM
# Chain of KRAS G12D (P62937 whole entry): as the sequence (P62937 whole entry) above
# Chain of KRAS G13D (P01116 other isoform, or with tags, fused parts or gaps G13D): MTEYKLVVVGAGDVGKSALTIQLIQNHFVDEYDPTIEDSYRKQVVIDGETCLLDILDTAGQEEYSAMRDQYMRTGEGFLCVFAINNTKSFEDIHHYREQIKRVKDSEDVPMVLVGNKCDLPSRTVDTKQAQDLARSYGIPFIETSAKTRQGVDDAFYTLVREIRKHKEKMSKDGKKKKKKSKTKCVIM
# Chain of KRAS G13D (P62937 whole entry): as the sequence (P62937 whole entry) above
# Chain of KRAS G12C (P01116-2 other isoform, or with tags, fused parts or gaps G12C): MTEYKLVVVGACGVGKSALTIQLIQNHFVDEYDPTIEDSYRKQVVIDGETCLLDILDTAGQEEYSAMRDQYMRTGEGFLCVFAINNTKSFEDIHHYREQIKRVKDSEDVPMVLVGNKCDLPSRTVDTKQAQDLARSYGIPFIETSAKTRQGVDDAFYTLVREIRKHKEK
# Chain of KRAS G12C (P62937 whole entry): as the sequence (P62937 whole entry) above
# Chain of KRAS WT (P01116 other isoform, or with tags, fused parts or gaps): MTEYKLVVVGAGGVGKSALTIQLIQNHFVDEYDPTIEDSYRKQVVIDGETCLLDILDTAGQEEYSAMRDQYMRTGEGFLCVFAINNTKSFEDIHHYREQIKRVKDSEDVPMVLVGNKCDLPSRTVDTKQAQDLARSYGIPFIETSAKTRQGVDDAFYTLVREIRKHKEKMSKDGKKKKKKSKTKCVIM
# Chain of KRAS WT (P62937 whole entry): as the sequence (P62937 whole entry) above
# Chain of KRAS G13C (P01116 other isoform, or with tags, fused parts or gaps G13C): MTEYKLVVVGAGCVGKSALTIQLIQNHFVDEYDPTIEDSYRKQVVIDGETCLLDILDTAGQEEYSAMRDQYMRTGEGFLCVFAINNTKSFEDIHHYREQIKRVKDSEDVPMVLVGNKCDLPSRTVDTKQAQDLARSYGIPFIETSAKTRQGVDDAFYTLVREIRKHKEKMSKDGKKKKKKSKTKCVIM
# Chain of KRAS G13C (P62937 whole entry): as the sequence (P62937 whole entry) above
IC50 [2] [nM],IC50 [3] [nM],IC50 [4] [nM],IC50 [5] [nM],IC50 [6] [nM],IC50 [7] [nM],IC50 [8] [nM],IC50 [9] [nM],EC50 [10] [nM],IC50 [11] [nM],SMILES,IC50 [1] [nM]
10 to 100,10 to 100,10 to 100,10 to 100,10 to 100,10 to 100,10 to 100,10 to 100,< 5000,,CCn1c(-c2cccnc2[C@H](C)OC)c2c3cc(ccc31)-c1cc(O)cc(c1)C[C@H](NC(=O)[C@H](C(C)C)N(C)C(=O)[C@@H]1CCN(C(=O)OC)C1)C(=O)N1CCC[C@H](N1)C(=O)OCC(C)(C)C2 [Compound A365],10 to 100
10 to 100,10 to 100,10 to 100,10 to 100,10 to 100,10 to 100,10 to 100,10 to 100,< 5000,,CCn1c(-c2cccnc2[C@H](C)OC)c2c3cc(ccc31)-c1cc(O)cc(c1)C[C@H](NC(=O)[C@H](C(C)C)N(C)C(=O)[C@H]1CCN(C(=O)[C@@H]3CCCN3)C1)C(=O)N1CCC[C@H](N1)C(=O)OCC(C)(C)C2 [Compound A370],1000 to 10000
10 to 100,10 to 100,10 to 100,10 to 100,10 to 100,10 to 100,10 to 100,10 to 100,< 5000,,CCn1c(-c2cccnc2[C@H](C)OC)c2c3cc(ccc31)-c1cc(O)cc(c1)C[C@H](NC(=O)[C@H](C(C)C)N(C)C(=O)[C@H]1CCN(C(=O)[C@H]3CCCN3C)C1)C(=O)N1CCC[C@H](N1)C(=O)OCC(C)(C)C2 [Compound A371],1000 to 10000
10 to 100,10 to 100,10 to 100,10 to 100,10 to 100,10 to 100,10 to 100,10 to 100,< 5000,,CCn1c(-c2cccnc2[C@H](C)OC)c2c3cc(ccc31)-c1cc(O)cc(c1)C[C@H](NC(=O)[C@H](C(C)C)N(C)C(=O)[C@H]1CCN(C(=O)[C@]3(C)CCCN3)C1)C(=O)N1CCC[C@H](N1)C(=O)OCC(C)(C)C2 [Compound A380],1000 to 10000
10 to 100,10 to 100,10 to 100,100 to 1000,10 to 100,10 to 100,10 to 100,10 to 100,< 5000,,CCn1c(-c2cccnc2[C@H](C)OC)c2c3cc(ccc31)-c1cc(O)cc(c1)C[C@H](NC(=O)[C@H](C(C)C)N(C)C(=O)[C@H]1CCCC[C@H]1N)C(=O)N1CCC[C@H](N1)C(=O)OCC(C)(C)C2 [Compound A419],100 to 1000

# Continued, compound first:
SMILES,IC50 [2] [nM],IC50 [3] [nM],IC50 [4] [nM],IC50 [5] [nM],IC50 [6] [nM],IC50 [7] [nM],IC50 [8] [nM],IC50 [9] [nM],EC50 [10] [nM],IC50 [11] [nM],IC50 [1] [nM]
CCn1c(-c2cccnc2[C@H](C)OC)c2c3cc(ccc31)-c1csc(n1)C[C@H](NC(=O)[C@H](C(C)C)N(C)C(=O)N1CCN3CCOCC3C1)C(=O)N1CCC[C@H](N1)C(=O)OCC(C)(C)C2 (stereo partly drawn) [Compound A296],100 to 1000,1000 to 10000,100 to 1000,100 to 1000,100 to 1000,1000 to 10000,100 to 1000,100 to 1000,< 5000,,10 to 100
CCn1c(-c2cccnc2[C@H](C)OC)c2c3cc(ccc31)-c1cc(O)cc(c1)C[C@H](NC(=O)[C@H](C(C)C)N(C)C(=O)[C@H]1CCCC[C@@H]1N)C(=O)N1CCC[C@H](N1)C(=O)OCC(C)(C)C2 [Compound A394],100 to 1000,100 to 1000,100 to 1000,100 to 1000,10 to 100,100 to 1000,100 to 1000,100 to 1000,< 5000,,1000 to 10000
CCn1c(-c2cccnc2[C@H](C)OC)c2c3cc(ccc31)-c1csc(n1)C[C@H](NC(=O)[C@H](C(C)C)N(C)C(=O)N(C)[C@@H]1CCCN(C)C1)C(=O)N1CCC[C@H](N1)C(=O)OCC(C)(C)C2 [Compound A587],,,,,,,,,< 5000,10 to 100,
